Test results from US20130172246A1, “INSULIN GLARGINE VERSUS METFORMIN FOR THE FIRST-LINE TREATMENT OF EARLY TYPE-2 DIABETES” (priority 2011, published 2013).
Where two headings read alike, the source gives them in different places.

How the values were obtained:
[1] = Body weight, BMI, abdominal and hip measurement in the clinical trial
Description: (§2) • Checking the inclusion/exclusion criteria • Physical examination • Measuring body weight, waist/hip measurement, blood pressure, pulse • Recording the change in concomitant medication and concomitant conditions • Recording AEs and SAEs • Applying the CGMS for up to 72 h, briefing and training the patient • Randomization: • Group A: Titrating insulin glargine to target level of fasting plasma glucose (5.6 mmol/l (100 mg/dl)) • Briefing and training the patients in insulin use (Depending on the organization, training measures can be implemented during the overall visit 1 a-c.) • Group B: 500 mg of metformin tid • Pregnancy test, if applicable. • Laser Doppler measurement; only at center 01 and 02
(§3) • Recording the change in concomitant medication • Recording AEs and SAEs • Physical examination • Measuring body weight, waist/hip measurement, blood pressure, pulse • Applying the CGMS for up to 72 h, briefing and training the patient • Drug accountability/compliance (registering the used-up medication) • Laser Doppler measurement, only at center 01 and 02

type 2 diabetes patients [2] = assay: Parameters of beta-cell function (insulin, proinsulin, C-peptide, HOMA) fasting and 2 h after test meal; type: in vivo, human; conditions: for ratio of proinsulin to C-peptide: after treatment, indicating improvement in beta-cell function; for Insulin-C-peptide ratio - change, 2 h after test meal / Insulin-C-peptide ratio - change, Fasting / Proinsulin-C-peptide ratio - change, 2 h after test meal / Proinsulin-C-peptide ratio - change, Fasting / HOMA - change / Insulin-proinsulin ratio - change, 2 h after test meal / Insulin-proinsulin ratio - change, Fasting / C-peptide - change, 2 h after test meal / C-peptide - change, Fasting / Insulin - change, 2 h after test meal / Insulin - change, Fasting / Proinsulin - change, 2 h after test meal / Proinsulin - change, Fasting / Insulin-C-peptide ratio - visit 8, 2 h after test meal / Insulin-C-peptide ratio - visit 8, Fasting / Proinsulin-C-peptide ratio - visit 8, 2 h after test meal / Proinsulin-C-peptide ratio - visit 8, Fasting / HOMA - visit 8 / Insulin-proinsulin ratio - visit 8, 2 h after test meal / Insulin-proinsulin ratio - visit 8, Fasting / C-peptide - visit 8, 2 h after test meal / C-peptide - visit 8, Fasting / Insulin - visit 8, 2 h after test meal / Insulin - visit 8, Fasting / Proinsulin - visit 8, 2 h after test meal / Proinsulin - visit 8, Fasting: per protocol; for Insulin-C-peptide ratio - change, 2 h after test meal / Insulin-C-peptide ratio - change, Fasting / Proinsulin-C-peptide ratio - change, 2 h after test meal / Proinsulin-C-peptide ratio - change, Fasting / HOMA - change / Insulin-proinsulin ratio - change, 2 h after test meal / Insulin-proinsulin ratio - change, Fasting / C-peptide - change, 2 h after test meal / C-peptide - change, Fasting / Insulin - change, 2 h after test meal / Insulin - change, Fasting / Proinsulin - change, 2 h after test meal / Proinsulin - change, Fasting: change visit 1 to visit 8; for Insulin-C-peptide ratio - change, 2 h after test meal / Insulin-C-peptide ratio - change, Fasting / Proinsulin-C-peptide ratio - change, 2 h after test meal / Proinsulin-C-peptide ratio - change, Fasting / Insulin-C-peptide ratio - visit 8, 2 h after test meal / Insulin-C-peptide ratio - visit 8, Fasting / Proinsulin-C-peptide ratio - visit 8, 2 h after test meal / Proinsulin-C-peptide ratio - visit 8, Fasting: mean; for HOMA - change / Insulin-proinsulin ratio - change, 2 h after test meal / Insulin-proinsulin ratio - change, Fasting / C-peptide - change, 2 h after test meal / C-peptide - change, Fasting / Insulin - change, 2 h after test meal / Insulin - change, Fasting / Proinsulin - change, 2 h after test meal / Proinsulin - change, Fasting / HOMA - visit 8 / Insulin-proinsulin ratio - visit 8, 2 h after test meal / Insulin-proinsulin ratio - visit 8, Fasting / C-peptide - visit 8, 2 h after test meal / C-peptide - visit 8, Fasting / Insulin - visit 8, 2 h after test meal / Insulin - visit 8, Fasting / Proinsulin - visit 8, 2 h after test meal / Proinsulin - visit 8, Fasting: mean (SD); for C-peptide - change, 2 h after test meal / C-peptide - change, Fasting / Insulin - change, 2 h after test meal / Insulin - change, Fasting / Proinsulin - change, 2 h after test meal / Proinsulin - change, Fasting / C-peptide - visit 8, 2 h after test meal / C-peptide - visit 8, Fasting / Insulin - visit 8, 2 h after test meal / Insulin - visit 8, Fasting / Proinsulin - visit 8, 2 h after test meal / Proinsulin - visit 8, Fasting: unit as in Table 4; for Insulin-C-peptide ratio - visit 8, 2 h after test meal / Insulin-C-peptide ratio - visit 8, Fasting / Proinsulin-C-peptide ratio - visit 8, 2 h after test meal / Proinsulin-C-peptide ratio - visit 8, Fasting / HOMA - visit 8 / Insulin-proinsulin ratio - visit 8, 2 h after test meal / Insulin-proinsulin ratio - visit 8, Fasting / C-peptide - visit 8, 2 h after test meal / C-peptide - visit 8, Fasting / Insulin - visit 8, 2 h after test meal / Insulin - visit 8, Fasting / Proinsulin - visit 8, 2 h after test meal / Proinsulin - visit 8, Fasting: week 36
Description: (§1) Below is a list of the various target parameters: • Protection of the β-cells by early insulin therapy • C-Peptide (fasting and 2 h pp after TM) • Proinsulin (fasting and 2 h pp after TM) • Glycemic variability: • Glycemic load • Standard deviation (SD), • MAGE • HbA1c • Anti-inflammatory action of insulin: • Biomarkers of subclinical inflammation (fasting and 2 h pp) • hsCRP, • PAI-1, • Leukocyte count • Back-up samples for determining • MMP9 • ADMA • Adiponectin • Effect on endothelial function • Endothelial function at ball of thumb using laser Doppler (O2C) • Effect on renal function • Microalbuminuria (albumin/creatinine ratio) • Serum creatinine • Risk of hypoglycemia • Hypoglycemic intervals (time<3 mmol glucose) during CGM over 48 hours (day 2+3 after TM) • Free fatty acids
Test meal: On the morning of the 2nd day of the CGM, there is a standardized test meal in the trial center. This test meal (TM) consists of 95 g of whole-wheat bread, 20 g of margarine, 25 g of fruit preserves, 25 g of cheese, 200 ml of orange juice, 200 ml of milk mix with banana, strawberry or cocoa with a total of 560 Kcal. Blood is taken from the patient prior to the TM (after night-time fasting period of at least 8 hours). Subsequently, the TM should be eaten within 15 min. From the 1st bite, the time is measured, and after 2 h have elapsed, a 2nd blood collection is performed. During the TM and during the two hours thereafter, the patient should move as little as possible so as not to falsify the monitoring.
• HbA1c chromatographically by HLPC (device: TOSOH A1c) • Plasma glucose by enzymatic UV test HK (device: Selectra) • Creatinine in urine by PAP test (enzyme-photometrically) (device: Selectra) • Albumin in urine (spontaneous) by immunoturbidimetric method (device: Selectra) • Microalbuminuria (calculated: albumin/creatinine ratio) • Serum creatinine enzyme-photometrically by means of creatinine PAP test (device: Selectra) • ALAT, ASAT by optimized UV method according to IFCC (device: Selectra) • Insulin by ELISA (solid-phase enzyme immunoassay; device: Anthos) • C-peptide by ELISA (solid-phase enzyme immunoassay; device: Anthos) • Proinsulin (intact) (solid-phase enzyme immunoassay; device: Anthos) • Triglycerides by GPO-PAP method (device: Selectra) • HDL cholesterol by enzymatic test (device: Selectra) • LDL cholesterol by enzymatic test (device: Selectra) • Free fatty acids by photometric method (NEFA) (device: Selektra) • hsCRP by immunoturbidimetric method (device: Selectra) • PAI-1 (plasminogen activator inhibitor active antigen) bioimmunoassay • Leukocyte count by electronic counting • Pregnancy test (urine dipstick)
In the study in the previous examples, 75 patients (45 men, 30 women, mean age: 60.7±9.2 years) were examined, whose first diagnosis of type 2 diabetes dated back to less than 5 years and whose HbA1c level was between 6.5 and 8.5%. The patients were treated with either metformin (MET, 1000 mg b.i.d. (n=3)) or insulin glargine (GLA) q.d. just before bedtime (n=3). The insulin dose was adjusted for a target plasma glucose concentration (FPG) of ≦5.6 mmol/L according to a standardized titration algorithm. At the start and end of the study, the HbA1c level and the plasma glucose, proinsulin and C-peptide concentrations were determined. […] All the patients received a standardized test meal on the second day of the continuous glucose monitoring for comparison of the interindividual postprandial (pp) glucose excursions.

type 2 diabetes patients [3] = conditions: cited from earlier work
type 2 diabetes patients [4] = assay: Hypoglycemic events and low interstitial glucose periods during CGM; type: in vivo, human; conditions: early treatment with GLA vs. MET
Description: as §1, with “acids […]” for “acids”

type 2 diabetes patients [5] = conditions: ORIGIN-CGMS substudy, cited from earlier work
[6] = human, in vivo
Description: as §2, §3

type 2 diabetes patients [7] = assay: Pilot study with insulin glargine with a CGMS; type: in vivo, human; conditions: compared to metformin
type 2 diabetes patients [8] = conditions: background statement; cited from earlier work
[9] = per protocol, change visit 1 to visit 8, mean (SD), unit as in Table 4

Compound: CN(C)C(=N)N=C(N)N [Metformin]
- Abdomen - visit 8 ([1]; abdominal circumference, per protocol, week 36, mean (SD), unit as in Table 4): 100.5 (13.7) cm
- Hip - 8th visit ([1]; hip measurement, per protocol, week 36, mean (SD), unit as in Table 4): 108.0 (11.6) cm
- weight loss ([1]; over the study, vs. GLA p<0.001): 3.0 ± 4.3 kg
- Abdomen - change [1, 9]: −2.0 (4.1) cm
- BMI - change [1, 9]: 1.0 (1.4) kg/m^2
- Hip - change [1, 9]: −1.6 (4.1) cm
- BMI - visit 8 ([1]; per protocol, week 36, mean (SD), unit as in Table 4): 29.3 (5.3) kg/m^2
- ratio of proinsulin to C-peptide (type 2 diabetes patients [2]): significant reduction
- Insulin-C-peptide ratio - change, 2 h after test meal (type 2 diabetes patients [2]): −38956.8
- Insulin-C-peptide ratio - change, Fasting (type 2 diabetes patients [2]): −25386.1
- Proinsulin-C-peptide ratio - change, 2 h after test meal (type 2 diabetes patients [2]): −1668.7
- Proinsulin-C-peptide ratio - change, Fasting (type 2 diabetes patients [2]): −1386.3
- HOMA - change (type 2 diabetes patients [2]): 4.4 (19.5)
- Insulin-proinsulin ratio - change, 2 h after test meal (type 2 diabetes patients [2]): 3.0 (8.4)
- Insulin-proinsulin ratio - change, Fasting (type 2 diabetes patients [2]): 2.9 (7.6)
- C-peptide - change, 2 h after test meal (type 2 diabetes patients [2]): −0.1 (2.0) nmol/l
- C-peptide - change, Fasting (type 2 diabetes patients [2]): −0.3 (0.8) nmol/l
- Insulin - change, 2 h after test meal (type 2 diabetes patients [2]): −11.1 (30.2) mU/l
- Insulin - change, Fasting (type 2 diabetes patients [2]): −2.7 (3.6) mU/l
- Proinsulin - change, 2 h after test meal (type 2 diabetes patients [2]): −6.9 (14.5) pmol/l
- Proinsulin - change, Fasting (type 2 diabetes patients [2]): −3.2 (4.2) pmol/l
- Insulin-C-peptide ratio - visit 8, 2 h after test meal (type 2 diabetes patients [2]): 41915.2
- Insulin-C-peptide ratio - visit 8, Fasting (type 2 diabetes patients [2]): 25456.9
- Proinsulin-C-peptide ratio - visit 8, 2 h after test meal (type 2 diabetes patients [2]): 2458.1
- Proinsulin-C-peptide ratio - visit 8, Fasting (type 2 diabetes patients [2]): 2142.4
- HOMA - visit 8 (type 2 diabetes patients [2]): 56.3 (34.5)
- Insulin-proinsulin ratio - visit 8, 2 h after test meal (type 2 diabetes patients [2]): 24.7 (27.1)
- Insulin-proinsulin ratio - visit 8, Fasting (type 2 diabetes patients [2]): 16.7 (17.4)
- C-peptide - visit 8, 2 h after test meal (type 2 diabetes patients [2]): 7.9 (3.4) nmol/l
- C-peptide - visit 8, Fasting (type 2 diabetes patients [2]): 2.7 (1.1) nmol/l
- Insulin - visit 8, 2 h after test meal (type 2 diabetes patients [2]): 50.8 (39.7) mU/l
- Insulin - visit 8, Fasting (type 2 diabetes patients [2]): 10.0 (6.0) mU/l
- Proinsulin - visit 8, 2 h after test meal (type 2 diabetes patients [2]): 20.4 (19.9) pmol/l
- Proinsulin - visit 8, Fasting (type 2 diabetes patients [2]): 5.8 (4.6) pmol/l
- patients additionally receiving sulfonylureas or other combinations with oral antidiabetics (type 2 diabetes patients [3]; after one to two years, UK-PDS and DIG study): over 50%
- patients with stomach complaints, disturbances in appetite and, very rarely, allergies (type 2 diabetes patients [3]; background statement): approximately 10%
- cases in which not tolerated (type 2 diabetes patients [3]; reference [17]): approximately 15%

Compound: Insulin glargine
- number of hypoglycemic events (type 2 diabetes patients [4]): no rise in the number of hypoglycemic events
- difference in the AUC TM for BG vs. standard treatment (predominantly metformin therapy) (type 2 diabetes patients [5]): 15%
- difference in the AUC TM for BG vs. standard treatment (predominantly metformin therapy) (type 2 diabetes patients [5]; standard deviation 179): 127 mmol*120 min
- ratio of proinsulin to C-peptide (type 2 diabetes patients [2]): significant reduction
- beta-cell function (type 2 diabetes patients [2]; early treatment, compared to standard treatment with MET): improvement in beta-cell function
- Insulin-C-peptide ratio - change, 2 h after test meal (type 2 diabetes patients [2]): −24587.4
- Insulin-C-peptide ratio - change, Fasting (type 2 diabetes patients [2]): 46799.3
- Proinsulin-C-peptide ratio - change, 2 h after test meal (type 2 diabetes patients [2]): −2496.6
- Proinsulin-C-peptide ratio - change, Fasting (type 2 diabetes patients [2]): −1174.8
- HOMA - change (type 2 diabetes patients [2]): 77.2 (98.0)
- Insulin-proinsulin ratio - change, 2 h after test meal (type 2 diabetes patients [2]): 8.2 (9.4)
- Insulin-proinsulin ratio - change, Fasting (type 2 diabetes patients [2]): 16.4 (12.4)
- C-peptide - change, 2 h after test meal (type 2 diabetes patients [2]): −0.6 (2.4) nmol/l
- C-peptide - change, Fasting (type 2 diabetes patients [2]): −1.2 (1.1) nmol/l
- Insulin - change, 2 h after test meal (type 2 diabetes patients [2]): 6.5 (38.4) mU/l
- Insulin - change, Fasting (type 2 diabetes patients [2]): 2.7 (6.7) mU/l
- Proinsulin - change, 2 h after test meal (type 2 diabetes patients [2]): −11.1 (26.8) pmol/l
- Proinsulin - change, Fasting (type 2 diabetes patients [2]): −7.6 (10.8) pmol/l
- Insulin-C-peptide ratio - visit 8, 2 h after test meal (type 2 diabetes patients [2]): 59822.8
- Insulin-C-peptide ratio - visit 8, Fasting (type 2 diabetes patients [2]): 80748.4
- Proinsulin-C-peptide ratio - visit 8, 2 h after test meal (type 2 diabetes patients [2]): 3578.2
- Proinsulin-C-peptide ratio - visit 8, Fasting (type 2 diabetes patients [2]): 3537.8
- HOMA - visit 8 (type 2 diabetes patients [2]): 127.9 (99.3)
- Insulin-proinsulin ratio - visit 8, 2 h after test meal (type 2 diabetes patients [2]): 20.7 (11.8)
- Insulin-proinsulin ratio - visit 8, Fasting (type 2 diabetes patients [2]): 24.5 (11.7)
- C-peptide - visit 8, 2 h after test meal (type 2 diabetes patients [2]): 6.7 (3.1) nmol/l
- C-peptide - visit 8, Fasting (type 2 diabetes patients [2]): 1.6 (0.9) nmol/l
- Insulin - visit 8, 2 h after test meal (type 2 diabetes patients [2]): 62.6 (51.8) mU/l
- Insulin - visit 8, Fasting (type 2 diabetes patients [2]): 14.6 (8.8) mU/l
- Proinsulin - visit 8, 2 h after test meal (type 2 diabetes patients [2]): 26.8 (29.0) pmol/l
- Proinsulin - visit 8, Fasting (type 2 diabetes patients [2]): 5.4 (5.0) pmol/l
- Abdomen - change [6]: 1.1 (3.7) cm
- Abdomen - visit 8 [6]: 104.3 (10.7) cm
- BMI - change [6]: −0.5 (1.3) kg/m^2
- BMI - visit 8 [6]: 29.9 (4.1) kg/m^2
- Hip - 8th visit [6]: 108.6 (9.4) cm
- Hip - change [6]: 1.6 (4.1) cm
- weight gained [6]: 1.5 ± 3.8 kg
- control of postprandial hyperglycemia (type 2 diabetes patients [7]): improved control of postprandial hyperglycemia compared to metformin
- serious adverse reactions (type 2 diabetes patients [8]): without serious adverse reactions such as severe hypoglycemias
- stable HbA1c level achieved (type 2 diabetes patients [8]): around 6%
